The text below walks through data of patent US5369111A, “Modulator agent and use thereof” (University of Vermont, priority 1992, dated 1994).

For one data set, the system named is RCC-2 cells. The data set is described as follows: Inhibition of population growth (cytotoxicity), rat colon adenocarcinoma RCC-2. It counts as cell-based. The following applies: Rattus norvegicus; RCC-2, 72 h. The text has this: (§1) The analogs were examined in a panel of tumor cell lines of both intrinsic and acquired drug resistance, as described in Table 1. The rat colon adenocarcinoma cell lines RCC-2 and RCC-5 (ref. 13) were maintained in Ham's F12 medium supplemented with 5% heat-inactivated, fetal bovine serum (Sterile Systems. Hyclone, Logan, Utah). The two rat colon cancer cell lines differ in their degree of cellular differentiation; whereas the RCC-2 cell line is undifferentiated, the RCC-5 cell line is highly mucinous. The human epidermoid carcinoma cell line KB-3-1 and its MDR variant KB-Vl, selected by VBL treatment (ref. 14; courtesy of M. Gottesman. National Cancer Institute), was maintained in DMEM medium supplemented with 10%, heat-inactivated, fetal bovine serum. The murine sarcoma cell line […] and its MDR strains A3 and A10 selected by ADM treatment (ref. 15; courtesy of T. Tritton, Dept. Pharmacology, Univ. Vermont). were maintained in DMEM medium supplemented with 10% heat-inactivated, horse serum (Hazelton Biolog. Lenexa, Kans.). Stock cultures were subcultured twice weekly upon reaching the late exponential phase of population growth: population doubling times were 18-24 h. Antibiotics were not used in stock or experimental cultures. The MDR cell strains were grown in drug-free media for 48 h prior to experimental use.
(§2) Mid-exponential cultures were used for all assays. The RCC-2 and RCC-5 cell lines were seeded into 24-well plates at 2×10^4 cells/well and allowed to attach to the substratum for 16-18 h prior to treatment. The S180 cell lines were seeded into culture tubes at 1×10^5 cells/ml and treated immediately. Cytotoxicity was determined by quantitation of population growth after 72 h incubation by electronic particle counter (Coulter Electronics, Hialeah, Fla.). The human tumor cell lines were used in a clonogenic assay for cytotoxicity. Cells were seeded at 300 cells/dish, incubated overnight and then treated. Colonies were scored 7-11 days later. In all assays of analog modulation of drug sensitivity, the analog was added minutes prior to the addition of cytotoxic drug.

In the next data set the test system is RCC-5 cells. The data set is described as follows: Inhibition of population growth (cytotoxicity), rat colon adenocarcinoma RCC-5. The data set is classed as cell-based. The following applies: Rattus norvegicus; RCC-5, 72 h.
Text: as §1, §2

The subject of a further data set is S180 cells, parental. In words: Inhibition of population growth (cytotoxicity), S180 sarcoma, parental. The data set is classed as cell-based, mouse. The settings on record: Mus musculus; for IC70: S-180, 72 h, parental S180; for IC50: S-180.
Text: as §1, §2

A further data set has as its system KB-3-1 cells. In words: Clonogenic assay for cytotoxicity, KB-3-1 parental. The settings on record: Homo sapiens. The data set is classed as cell-based.
Text: as §1, §2

A further data set relates to S180/A3 cells. The data set is described as follows: Inhibition of population growth (cytotoxicity), MDR strain S180/A3. The data set is classed as cell-based, mouse.
Text: as §1, §2

The subject of a further data set is S180/A10 cells. The data set is described as follows: Inhibition of population growth (cytotoxicity), MDR strain S180/A10. The settings on record: 4320 min. It counts as cell-based, mouse.
Text: as §1, §2

For a further data set, the system named is KB-V1 cells. The data set is described as follows: Clonogenic assay for cytotoxicity, MDR variant KB-V1. The data set is classed as cell-based, human. The settings on record: for Relative resistance: IC50 in KB-V1 divided by IC50 of parental, Table I.
Text: as §1, §2
FIG. 10 represents the potency of the analog C-20'-deoxy deethyl vincovaline as a modulator of the drug sensitivity of various cell lines: the parental S180 cell line: the two rat colon cancer cell lines, RCC-2 and RCC-5; and the human epidermoid carcinoma cell line KB-3-1 and its MDR cell strain KB-V1, which expresses very high levels of drug resistance (200-500 fold). The enhancement of sensitivity was calculated as the sensitivity index =IC50 of the drug alone divided by the IC50 of the drug+analog. The drugs examined were ADM (o), VBL (Δ), and VCR (.quadrature.). The cytotoxicity of drug and analog treatments in the KB cell lines were measured by cloning efficiencies. The arrows denote the non-toxic concentration limit of the analog in each cell line.

A further data set concerns P388 R cells. The data set is described as follows: Viability (MTT test) of P388 R cells. The following applies: for resistance of P388 R cells to cytotoxic activity of the drug: FIGS. 12 to 14. The data set is classed as cell-based, mouse. An excerpt:
The sensitization of C-20'-deoxy C-20'-deethyl vincovaline (D-DEV) has been tested on sensitive and resistants P388 cell lines originating from mouse lympnoma.
The resistance to anticancerous drug has been induced on DBA2 mouses bearing P388 cells ascites and maintained by treatment with adryamycin.
This study has been carried out at least in triplicate.
On the technique in general: Tetrazolium dyes change colour on reduction, which living cells bring about.

Setting [1] is: A3, IC50 resistant / IC50 parental, Table II, 4320 min.
Setting [2] is: IC50 in S180/A3 divided by IC50 of parental, Table I.
[3] abbreviates: A10, IC50 resistant / IC50 parental, Table II.
Where [4] appears, read: IC50 in S180/A10 divided by IC50 of parental, Table I.

Where only a bound is given, the exact number is not on record here.

With `COc1cccc2c1C(=O)c1c(O)c3c(c(O)c1C2=O)C[C@@](O)(C(=O)CO)C[C@@H]3O[C@H]1C[C@H](N)[C@H](O)[C@H](C)O1` [ADM, adriamycin], the IC50 – broadly, the midpoint of a concentration-inhibition curve – was found to be 10 nM with RCC-2 cells; 50 nM with RCC-5 cells; 100 nM in the data set on S180 cells, parental (S180, parental, Table II); 100 nM in the data set with S180 cells, parental (S180 parental, 72 h, Table I); 15 nM in the data set with KB-3-1 cells. For the same molecule, the IC70 (as a rule, the concentration needed for an effect of 70%) in the data set on S180 cells, parental is 200 nM. Further, the Relative resistance came to 15 in the data set with S180/A3 cells (setting [1]); 15 in the data set on S180/A3 cells (setting [2]); 90 in the data set with S180/A10 cells (setting [3]); 90 in the data set on S180/A10 cells (setting [4]); 500 in the data set with KB-V1 cells. Moreover, the “resistance of KB-V1 to the drug” value in the data set with KB-V1 cells was not below 200 fold. For the same molecule, in the data set on P388 R cells (0.17 to 4.31 μM, 37° C., 24 and 48 hours), the “adriamycin cytotoxicity in P388 R cells” value is given as “lack of adriamycin cytotoxicity”. Also, the “resistance of P388 R cells to cytotoxic activity of the drug” value (from here on “resistance of P388 R cells”) in the data set with P388 R cells was “resistance of P388 R cells to cytotoxic activity”.

With `CC[C@]1(O)C[C@@H]2CN(CCc3c([nH]c4ccccc34)[C@@](C(=O)OC)(c3cc4c(cc3OC)N(C)[C@H]3[C@@](O)(C(=O)OC)[C@H](OC(C)=O)[C@]5(CC)C=CCN6CC[C@]43[C@@H]65)C2)C1` [VBL, vinblastine], the IC50 in the data set on RCC-2 cells was 3 nM; with RCC-5 cells, 8 nM; in the data set with S180 cells, parental (S180, parental, Table II) it was 8 nM; with S180 cells, parental (S180 parental, 72 h, Table I), 8 nM; with KB-3-1 cells, 1 nM. In addition, in the data set on S180 cells, parental, the IC70 was 15 nM. Moreover, the Relative resistance stood at 3 in the data set on S180/A3 cells (setting [1]); 3 in the data set with S180/A3 cells (setting [2]); 15 in the data set with S180/A10 cells (setting [3]); 15 with S180/A10 cells (setting [4]); 200 in the data set on KB-V1 cells. In addition, the “resistance of KB-V1 to the drug” value in the data set with KB-V1 cells is given as not below 200 fold. In addition, the “vinblastine cytotoxicity towards P388 R cells” value in the data set on P388 R cells (0.00055 to 0.11 μM, 24 hours) is listed as “lack of vinblastine cytotoxicity”. In addition, the “resistance of P388 R cells” value with P388 R cells is reported as “resistance of P388 R cells to cytotoxic activity”.

Take `CC[C@]1(O)C[C@H]2CN(CCc3c([nH]c4ccccc34)[C@@](C(=O)OC)(c3cc4c(cc3OC)N(C=O)[C@H]3[C@@](O)(C(=O)OC)[C@H](OC(C)=O)[C@]5(CC)C=CCN6CC[C@]43[C@@H]65)C2)C1` [VCR, vincristine]: the IC50 with RCC-2 cells amounted to 5 nM; with RCC-5 cells, 15 nM; in the data set with S180 cells, parental (S180, parental, Table II), 30 nM; in the data set with S180 cells, parental (S180 parental, 72 h, Table I) it was 30 nM; in the data set on KB-3-1 cells, 2 nM. Moreover, the IC70 in the data set on S180 cells, parental was found to be 45 nM. For the same molecule, the Relative resistance in the data set on S180/A3 cells (setting [1]) is listed as 10; in the data set on S180/A3 cells (setting [2]), 7; in the data set on S180/A10 cells (setting [3]), 20; with S180/A10 cells (setting [4]), 17; in the data set with KB-V1 cells, 400. Moreover, in the data set on KB-V1 cells, the “resistance of KB-V1 to the drug” value is reported as not below 200 fold. Further, in the data set on P388 R cells (0.1 nM to 0.054 μM, 24 hours), the “vincristine cytotoxicity towards P388 R cells” value is on record as “lack of vincristine cytotoxicity”. Moreover, in the data set with P388 R cells, the “resistance of P388 R cells” value was “resistance of P388 R cells to cytotoxic activity”.
